Patent US20250340570A1, “COMPOSITIONS USEFUL FOR MODULATING SPLICING” (Skyhawk Therapeutics, Inc., priority 2022, published 2025)

Legend:
[1] = test system: ATXN3 transcripts containing exon 4; experiment: ATXN3 quantitative splicing assay (qPCR, E4E5 transcripts containing exon 4); format: cell-based; conditions: Human neuroblastoma SK-N-MC cells, 24 h treatment, qPCR primers/probe E4E5
Summary of the method: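 SK-N-MC neuroblastoma cells treated 24 h with compounds from 30 μM to 0.6 nM (0.3% DMSO), then lysed for cDNA synthesis. ATXN3 transcripts containing exon 4 quantified by TaqMan qPCR with E4E5 primers/probe; E8E9 set measured total ATXN3.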

total ATXN3 protein = experiment: ATXN3 total protein assay (Mesoscale Discovery); format: cell-based; conditions: Human neuroblastoma SK-N-MC cells, 48 hours incubation, MSD assay
Summary of the method: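 SK-N-MC neuroblastoma cells treated 48 hours with compound, 30 µM to 0.6 nM. Lysates assayed by MSD sandwich immunoassay with mouse capture and rabbit detection anti-ATXN3 antibodies; quantified against recombinant ATXN3 standards.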

| IC50 [1] | IC50 (total ATXN3 protein) | SMILES |
| --- | --- | --- |
| 0.501 to 5 µM | 0.501 to 5 µM | C[C@@H](F)[C@H](N)Cc1sc2c(NCc3nccs3)snc2c1Br [Compound 106, 7-[(2R,3R)-2-amino-3-fluorobutyl]-8-bromo-4-{[(1,3-thiazol-2-yl)methyl]amino}-3,6-dithia-2-azabicyclo[3.3.0]octa-1,4,7-triene] |
| 0.501 to 5 µM | 0.501 to 5 µM | C[C@H](N)C(F)(F)c1sc2c(NCc3ccco3)snc2c1Cl [Compound 110, 7-[(S)-2-amino-1,1-difluoropropyl]-8-chloro-4-(furfurylamino)-3,6-dithia-2-azabicyclo[3.3.0]octa-1,4,7-triene] |
| 0.501 to 5 µM | 0.501 to 5 µM | N[C@H](Cc1sc2c(NCc3ccco3)snc2c1Br)C(F)F [Compound 111, 7-[(R)-2-amino-3,3-difluoropropyl]-8-bromo-4-(furfurylamino)-3,6-dithia-2-azabicyclo[3.3.0]octa-1,4,7-triene] |
| 10 to 40 µM | 10 to 40 µM | Brc1csc2c(NCc3cccs3)snc12 [Compound 113, (thenyl)(8-bromo-3,6-dithia-2-azabicyclo[3.3.0]octa-1,4,7-trien-4-yl)amine] |
| 10 to 40 µM | 10 to 40 µM | COC(c1sc2c(NCc3cccs3)snc2c1Br)[C@H](C)N (stereo partly drawn) [Compound 114, 5-[(2S)-2-amino-1-methoxypropyl]-6-bromo-N-(thiophen-2-ylmethyl)thieno[3,2-c][1,2]thiazol-3-amine] |

| SMILES | IC50 [1] | IC50 (total ATXN3 protein) |
| --- | --- | --- |
| C[C@H](N)Cc1sc2c(NCc3cccs3)snc2c1-c1ccccc1 [Compound 128, 7-[(S)-2-aminopropyl]-8-phenyl-4-thenylamino-3,6-dithia-2-azabicyclo[3.3.0]octa-1,4,7-triene] | 10 to 40 µM | 10 to 40 µM |
